The source of these data is patent publication US9271946B2, “Use of a RAR antagonist or inverse agonist for the treatment of chemotherapy and/or radiation therapy side effects” (IO Therapeutics, Inc., priority 2006, dated 2016).

Test [1] relates to CPM-induced neutropenic male BDF1 mice. Nature of the test: mono-therapy and combination therapy on neutrophil recovery in CPM-induced neutropenic mice (Example 4). The format is in vivo, mouse. As for the experimental part: VTP 194310 DMSO stock solution was made by weighing out VTP 194310 and dissolved in DMSO (25 mg/1.33 ml DMSO). This stock solution was then mixed with Vehicle (39.2 ml Corn Oil+0.8 ml DMSO).
The 3.0 mg/kg VTP194310 solution was made by mixing 39.2 ml Corn Oil+0.8 ml VTP 194310 DMSO Stock.
The 1.0 mg/kg VTP194310 solution was made by diluting the VTP194310 DMSO Stock 1:3 with DMSO (e.g. 1 ml DMSO+0.5 ml 4310 Stock), and then combining 39.2 ml Corn Oil+0.8 ml of the diluted VTP194310 Stock.
The 1 and 10 μg/kg PEG-G-CSF solutions were made by diluting 6 mg/ml stock with PBS.
Male BDF1 mice (C57Bl×DBA2), 7-8 weeks old, DOB: 1 Jun. 2006) were used in this experiment.
35 μl of blood (via the submandibular vein) were collected according to the scheduled time points or until the full recovery of blood cells and platelets. The blood samples were analyzed after 1:5 dilution with PBS saline containing 2% BSA (Fraction V) and 0.2 mM EDTA on the Hematology Analyzer Cell-DYN 3700 (Abbott Diagnostics).
Each group of mice were treated with vehicle, VTP 194310 at 3 mg/kg, PEG-G-CSF at 1 or 10 μg/kg, and CPM at 150 mg/kg. The mean numbers of total white blood cells (WBC), neutrophils, lymphocytes, red blood cells (RBC) and platelets and standard error (SE) for data obtained for each treated group are shown in FIG. 4. […] Combination treatment with VTP 194310 and PEG-G-CSF further increased recovery.

The next test has as its target T1, RARβ (Homo sapiens, UniProt P10826).
T1 sequence (P10826 1-455): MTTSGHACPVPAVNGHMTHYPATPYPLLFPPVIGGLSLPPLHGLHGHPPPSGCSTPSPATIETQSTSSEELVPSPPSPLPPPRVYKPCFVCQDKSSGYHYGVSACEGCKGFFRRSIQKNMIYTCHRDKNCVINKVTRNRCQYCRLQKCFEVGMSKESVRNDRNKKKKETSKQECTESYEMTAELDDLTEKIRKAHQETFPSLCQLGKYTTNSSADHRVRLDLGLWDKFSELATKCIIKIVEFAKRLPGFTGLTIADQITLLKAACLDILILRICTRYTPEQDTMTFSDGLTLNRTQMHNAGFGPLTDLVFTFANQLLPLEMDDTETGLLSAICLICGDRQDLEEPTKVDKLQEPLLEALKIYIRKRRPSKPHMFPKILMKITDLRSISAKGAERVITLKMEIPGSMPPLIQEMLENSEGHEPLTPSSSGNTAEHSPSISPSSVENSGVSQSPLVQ
Nature of the test: binding to RARβ.

Test [2] concerns CPM-induced leukopenic male BDF1 mice. Nature of the test: cyclophosphamide-induced mouse model of leukopenia, blood cell recovery (Example 1). The format is in vivo. The settings on record: for lymphocyte counts: mean±SEM. The text has this:
Mice purchased from Charles River Laboratories (Wilmington, Mass.) were housed individually in micro-isolater cages in a 12-hour light/dark cycle. They were housed under pathogen-free conditions, and received a normal standard diet and water ad libitum. They were acclimated for one week at the Association for Assessment and Accreditation of Laboratory Animal Care (AAALAC) accredited animal facility (Allergan Inc., Irvine, Calif.) prior to experiments. Study designs were approved by the Institutional Animal Care and Use Committee. Body weights were monitored throughout each study. Weight of the mice was in the range of 22-27 g at the day of treatment initiation. The mice were healthy, not previously used in other experimental procedures.
Leukopenia was induced in male BDF1 mice (C57Bl×DBA2, 7.5-12 weeks) by an intra-peritoneal (i.p.) injection of 200 mg/kg Cyclophosphamide (CPM, Sigma-Aldrich, Saint Louis, Mo.) in 0.2 ml saline. The effect of VTP 194310 on leukocyte recovery was evaluated by oral gavage of animals with 1 mg/kg of VTP 194310 as indicated in the results section. VTP 194310 (dissolved in DMSO) was diluted through peanut oil as the vehicle (dosed at 5 ml/kg). Control mice were given DMSO and vehicle alone. As a positive control, granulocytopoiesis was stimulated in CPM-treated mice by a single sub-cutaneous injection of 10 μg/kg pegylated recombinant methionyl human granulocyte colony-stimulating factor (PEG-r-metHuG-CSF) (Neulasta, Pegfilgrastim; Amgen, Thousand Oaks, Calif.) on day 2. Three separate experiments were performed.
Peripheral blood (60 μl) was collected under anaesthesia from the retroorbital sinus of the mice with heparinized capillary tubes and transferred to EDTA-coated microtainer tubes (Becton Dickinson, Franklin Lakes, N.J.). White cell, neutrophil, and lymphocyte counts were obtained for at least three mice per group by diluting the blood 1:4 with PBS containing 5% bovine serum albumin (Fraction V; Sigma, Saint Louis, Mo.), and by using an Advia 120 Hematology System (Bayer HealthCare Diagnostics Division, Tarrytown, N.Y.).

Test [3] deals with 5-FU-induced neutropenic male BDF1 mice. The experiment in a line: monotherapy and combination therapy on neutrophil recovery in 5-FU-induced neutropenic mice (Example 5). It counts as in vivo, mouse. As for the experimental part:
VTP194310 DMSO Stock solution was made by weighing out VTP194310 and dissolving it in DMSO (25 mg/1.33 ml DMSO).
The Vehicle solution was made by mixing 39.2 ml Corn Oil+0.8 ml DMSO.
The 3.0 mg/kg VTP194310 solution was made by mixing 39.2 ml Corn Oil+0.8 ml VTP 194310 DMSO Stock solution.
The 150 mg/kg 5-FU solution was made by weighing out 187.5 mg 5-FU and mixing it with 10 g saline.
The 10 μg/kg PEG-G-CSF solution was made by diluting 6 mg/ml stock with PBS.
Male BDF1 mice (C57Bl×DBA2), 9 weeks old, DOB: 26 Jun. 2006) were used in this experiment.
Each group of mice were treated with 150 mg/kg 5-FU intravenously on Day 0, vehicle or VTP194310 orally by gavage at 3 mg/kg/day on Days 2 to 4, and/or subcutaneously with PEG-G-CSF at 10 μg/kg on Days 5, 6, or 7 according to the regimens listed in the table. The mean numbers of total white blood cells (WBC), neutrophils, lymphocytes, red blood cells (RBC) and platelets and standard error (SE) of data obtained for each treated group are shown in FIG. 6.

Setting [4] is: 1 mg/kg oral at days −4 to −1 and at days 0 to 3.
Setting [5] is: day 8, 1 mg/kg oral at days −4 to −1 and at days 0 to 3, CPM day 0.

One may read the Ki as a dissociation constant, usually derived from enzyme kinetics or from competition with a known ligand. A low value points to tighter binding.

In the case of `CCc1ccc(C2=CC(C)(C)Sc3ccc(C#Cc4ccc(C(=O)O)cc4)cc32)cc1` [VTP 194310, 4-[[4-(4-ethylphenyl)-2,2-dimethyl-(2H)-thiochromen-6-yl]-ethynyl]-benzoic acid], in test [1] (CPM-induced mouse model), the “effectiveness in enhancing neutrophil recovery compared to PEG-G-CSF at 10 μg/kg” value was “similarly effective”. Also, the “neutrophil recovery relative to control” value in test [1] (monotherapy, CPM 150 mg/kg Day 0, VTP 194310 1 or 3 mg/kg/day oral Days −1 to 1, PEG-G-CSF 1 or 10 μg/kg s.c. Day 2) is recorded as “enhanced neutrophil recovery”. For the same compound, the affinity at RARβ, expressed as Ki, was 2 nM. The “numbers of leukocytes and neutrophils generated” value in test [2] (1 mg/kg oral at days 4 to 7) was “improved the numbers of leukocytes and neutrophils generated, but to an extent that was considerably less”. In test [2] (setting [4]), the “earliest day with significant differences in recovery” value is 5 day post-CPM; the “rise of leukocyte and neutrophil counts compared to control leukopenic mice” value is “rose quicker”. Further, the leukocyte recovery entry in test [2] (CPM 200 mg/kg i.p., 1 mg/kg oral gavage) is “improved leukocyte recovery”. Moreover, in test [2] (setting [5]), the “leukocyte counts in blood versus mice treated with CPM alone” value was approximately 3 fold and the “neutrophil counts in blood versus mice treated with CPM alone” value was approximately 3 fold. Also, in test [2] (day 8, dosed days 0 to 3), the lymphocyte counts is on record as 4.49±0.52 ×10^3/μl. The lymphocyte counts in test [2] (day 8, dosed days −4 to −1) is recorded as 4.53±0.39 ×10^3/μl. For the same compound, the “number of lymphocytes in blood compared to control leukopenic mice and Peg-r-metHuG-CSF mice” value in test [2] (dosed days −4 to −1 and days 0 to 3) is “increased number of lymphocytes”. In test [3] (3 mg/kg/day Days 2 to 4 vs PEG-G-CSF 10 μg/kg Days 5, 6, or 7), the “effectiveness in enhancing neutrophil recovery compared to PEG-G-CSF” value was “more effective than PEG-G-CSF”. For the same compound, the “recovery of neutrophils relative to control” value in test [3] (monotherapy, 5-FU 150 mg/kg i.v. Day 0, VTP 194310 3 mg/kg/day oral Days 2 to 4, PEG-G-CSF 10 μg/kg s.c. Day 5, 6, or 7) is reported as “improved the recovery of neutrophils”.
